Results reported in US8361998B2, “Compounds and their use as IKACh blockers” (AstraZeneca AB, priority 2010, dated 2013).

Target: T1, human cardiac ion channel proteins hKir3.1/Kir3.4 (Homo sapiens, UniProt P48544+P48549)
T1 construct: expressed in transfected cells
T1 sequence (P48549 1-501): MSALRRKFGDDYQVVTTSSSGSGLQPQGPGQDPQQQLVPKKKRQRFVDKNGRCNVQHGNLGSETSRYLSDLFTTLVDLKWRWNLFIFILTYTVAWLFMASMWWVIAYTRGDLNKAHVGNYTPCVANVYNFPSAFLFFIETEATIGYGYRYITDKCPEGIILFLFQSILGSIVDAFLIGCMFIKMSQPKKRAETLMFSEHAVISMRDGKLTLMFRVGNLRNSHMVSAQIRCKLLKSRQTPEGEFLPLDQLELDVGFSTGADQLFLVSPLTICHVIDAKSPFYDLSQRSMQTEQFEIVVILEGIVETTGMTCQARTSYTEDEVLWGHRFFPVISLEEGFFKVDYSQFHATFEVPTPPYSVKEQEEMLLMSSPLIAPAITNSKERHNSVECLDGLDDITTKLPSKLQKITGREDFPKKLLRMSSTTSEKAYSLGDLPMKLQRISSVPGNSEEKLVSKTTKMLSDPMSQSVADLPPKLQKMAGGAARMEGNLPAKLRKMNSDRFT
T1 sequence (P48544 1-419): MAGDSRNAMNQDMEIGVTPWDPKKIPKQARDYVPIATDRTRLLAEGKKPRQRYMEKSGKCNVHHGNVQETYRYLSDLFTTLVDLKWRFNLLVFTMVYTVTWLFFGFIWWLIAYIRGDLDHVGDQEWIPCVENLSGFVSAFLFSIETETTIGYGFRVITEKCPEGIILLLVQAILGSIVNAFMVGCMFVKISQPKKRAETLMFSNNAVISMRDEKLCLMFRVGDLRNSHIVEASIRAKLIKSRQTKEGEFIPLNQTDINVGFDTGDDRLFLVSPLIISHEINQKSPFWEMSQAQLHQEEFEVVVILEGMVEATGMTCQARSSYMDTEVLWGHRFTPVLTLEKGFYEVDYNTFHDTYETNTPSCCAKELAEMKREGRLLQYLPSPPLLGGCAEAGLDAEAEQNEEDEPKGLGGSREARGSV
Experiment: Atomic Absorption Screening (AAS) Rb efflux assay of hKir3.1/Kir3.4 block, carbachol/high K+ stimulated, 10-pt or 7-pt CR
Type: cell-based
Details: 10-pt CR (0.003 to 67 μmol/L), AAS Rb efflux, CHO-K1 cells expressing hKir3.1/Kir3.4; mean of >4 replicates; read-out: IKACh IC50 10-pt CR, AAS
Source text: Human KCNJ3 encoding Kir3.1 (Genbank acc. No. NM_002239) was inserted between EcoRI and NotI in the pIRESneo3 vector (Clontech Laboratories, Inc. CA, USA). Human KCNJ5 encoding Kir3.4 (Genbank Acc. No. BC069482) was inserted between EcoR1 and Not1 in the pIRESpuro3 vector (Clontech Laboratories, Inc. CA, USA). A Kozak sequence (GCCACC) was introduced before the start codon ATG of both constructs. Chinese Hamster Ovary K1, CHO-FLP/IN, cells (Invitrogen Corporation, Paisley, UK) were transfected simultaneously using Lipofectamine 2000 reagent (Invitrogen Corporation, Paisley, UK). Geneticin 600 μg/mL (Invitrogen Corporation, Paisley, UK) and puromycin 3 μg/mL (BD Bioscience) were added to the cell culture medium 3 days after transfection. Two weeks after transfection, colonies had appeared and were manually picked and sorted to one cell per well in a 96-well plate. Cells were then tested for Kir3.1 and Kir3.4 expression using membrane potential assay, Western Blot and Immunocytochemistry. […] The cell line was re-sorted by flow cytometry and resulting clones were assayed electrophysiologically using IonWorks (Molecular Devices) and later validated on the Q-Patch (Sophion A/S).
The stable cell line was cultured in DMEM/F12 with Glutamax 1 (Invitrogen Corporation, Paisley, UK), supplemented with foetal bovine serum 10%, puromycin 3 μg/mL, hygromycin 300 μg/mL and geneticin 600 μg/mL (Invitrogen Corporation, Paisley, UK). Care was taken not to seed cells at too low density and cells were passaged at approximately 70-80% confluency. Cells used for patch-clamp experiments were prepared by washing using PBS (—Mg, —Ca^2+), 2 times, detached using Accutase (Sigma). For Q-Patch measurements, storage medium was prepared fresh by adding 1.25 mL of 1M Hepes (GibcoBRL) to 50 mL CHO-SFM II medium (GibcoBRL) and detached cells were diluted to 2 million cells/mL in this medium. Frozen (Cryopreserved) cells were used for Atomic Absorption Screening (AAS) and plated poly-D-lysine 384-well plates (Greiner) at a density of 11,000-13,000 cells/well, the day before assay.
The blocking effects of compounds on the human cardiac ion channel proteins hKir3.1/Kir3.4 were assessed in CHO-K1 cells stably expressing the channel proteins using Atomic Absorption Screening (AAS). Cells were washed and then loaded with 25 μL Rb-loading buffer for three hours at 37° C. After that, the cells were washed again and 25 μL of diluted compound was transferred to the cell plate, incubated for 5 min in RT, and then […] of Carbachol/high K+ (10 μM carbachol and 20 mM KCl final concentration) buffer added to stimulate the cells and open the Kir3.1/Kir3.4 channel. After 10 min stimulation, […] of the supernatant was transferred to a new microplate, 45 μL washing buffer added to the supernatant and the level of Rb in the supernatant was then measured using an Aurora ICR 8000. Compounds were studied at concentrations ranging from 0.003 to 67 μmol/L (dilutions by three, 10-pt CR) or from 0.037 to 27 μmol/L (dilutions by three, 7-pt CR).
Stock solutions of compounds were prepared in DMSO 10 mM and stored at RT. Buffers used for AAS contained (in mM): HEPES 20, NaCl 150, MgCl2 1.0, CaCl2 2.0 and NaH2PO4 0.8 and Glucose 10 (wash 1) or KCl 5 and Glucose 5 (wash 2) or KCl 5 (dilution buffer). The High K^+ channel opener buffer contained (in mM): HEPES 20, NaCl 130, MgCl2 1.0, CaCl2 2.0 and NaH2PO4 0.8 together with KCl 20. Solutions used for Q-Patch (extracellular) in mM: NaCl 145, KCl 4, CaCl2 2.0, MgCl2 1.0, HEPES 10 and glucose 10. The high K^+ extra cellular solution used for Q-Patch in mM: NaCl 96.7, KCl 50.7, CaCl2 2.0, MgCl2 1.0, HEPES 10 and glucose 10 while the intra cellular solution used was (in mM): KCl 120, CaCl2 5.374, MgCl2 1.75, EGTA 10, KOH 3.125, HEPES 10, Na2ATP 4.
Results are given as mean IC50 of >4 replicates (10-pt CR, AAS) or >3 replicates (7-pt CR, AAS). Some of the data in Table 1 are mean values of two or more runs. […]

IC50 [µM]	SMILES
2.7	CC[C@H](C)[C@@H](CN1CCCC1)N(C)C(=O)c1ccc(F)c(C)c1 [Example 2.5, 4-Fluoro-N,3-dimethyl-N-((2S,3S)-3-methyl-1-(pyrrolidin-1-yl)pentan-2-yl)benzamide]
7.4	CO[C@H](C)[C@@H](CN1CCCC1)N(C)C(=O)c1ccc(F)c(C)c1 [Example 3.1, 4-Fluoro-N-((2R,3R)-3-methoxy-1-(pyrrolidin-1-yl)butan-2-yl)-N,3-dimethylbenzamide]
20	CO[C@H](C)[C@@H](CN1CCCC1)N(C)C(=O)c1cccc(C)c1 [Example 3.2, N-((2R,3R)-3-Methoxy-1-(pyrrolidin-1-yl)butan-2-yl)-N,3-dimethylbenzamide]
3.2	COC1CCN(C[C@H](C(C)C)N(C)C(=O)c2ccc(Br)cc2)CC1 [Example 3.6, (S)-4-Bromo-N-(1-(4-methoxypiperidin-1-yl)-3-methylbutan-2-yl)-N-methylbenzamide]

Continued, compound first:

SMILES	IC50 [µM]
Cc1cc(C(=O)N(C)[C@H](CN2CC(F)C2)C(C)C)ccc1F [Example 1.5, (S)-4-Fluoro-N-(1-(3-fluoroazetidin-1-yl)-3-methylbutan-2-yl)-N,3-dimethylbenzamide]	12
CC(C)[C@@H](CN1CC(F)C1)N(C)C(=O)c1ccc(Cl)cc1 [Example 1.6, (S)-4-Chloro-N-(1-(3-fluoroazetidin-1-yl)-3-methylbutan-2-yl)-N-methylbenzamide]	6.7
CC(C)[C@@H](CN1CC(F)C1)N(C)C(=O)c1ccc(Br)cc1 [Example 1.7, (S)-4-Bromo-N-(1-(3-fluoroazetidin-1-yl)-3-methylbutan-2-yl)-N-methylbenzamide]	5
CC(C)[C@@H](CN1CC(F)C1)N(C)C(=O)c1ccc(F)c(Cl)c1 [Example 1.8, (S)-3-Chloro-4-fluoro-N-(1-(3-fluoroazetidin-1-yl)-3-methylbutan-2-yl)-N-methylbenzamide]	11
CC(C)[C@@H](CN1CC(F)C1)N(C)C(=O)c1ccc(F)c(C(F)(F)F)c1 [Example 1.9, (S)-4-Fluoro-N-(1-(3-fluoroazetidin-1-yl)-3-methyl-butan-2-yl)-N-methyl-3-(trifluoromethyl)benzamide]	3.6
Cc1cc(C(=O)N(C)[C@H](CN2CCC2)C(C)C)ccc1F [Example 1.10, (S)-N-(1-(Azetidin-1-yl)-3-methylbutan-2-yl)-4-fluoro-N,3-dimethylbenzamide]	6.9
CC(C)[C@@H](CN1CCC1)N(C)C(=O)c1ccc(F)c(C(F)(F)F)c1 [Example 1.11, (S)-N-(1-(Azetidin-1-yl)-3-methylbutan-2-yl)-4-fluoro-N-methyl-3-(trifluoromethyl)benzamide]	1.2
CC(C)[C@@H](CN1CCC1)N(C)C(=O)c1ccc(F)c(Cl)c1 [Example 1.12, (S)-N-(1-(Azetidin-1-yl)-3-methylbutan-2-yl)-3-chloro-4-fluoro-N-methylbenzamide]	2.9
CC(C)[C@@H](CN1CCC1)N(C)C(=O)c1cccc(Cl)c1 [Example 1.13, (S)-N-(1-(Azetidin-1-yl)-3-methylbutan-2-yl)-3-chloro-N-methylbenzamide]	12
CC(C)[C@@H](CN1CCC1)N(C)C(=O)c1ccccc1 [Example 1.14, (S)-N-(1-(Azetidin-1-yl)-3-methylbutan-2-yl)-N-methylbenzamide]	6.6
CC(C)[C@@H](CN1CCC1)N(C)C(=O)c1cccc(C(F)(F)F)c1 [Example 1.15, (S)-N-(1-(Azetidin-1-yl)-3-methylbutan-2-yl)-N-methyl-3-(trifluoromethyl)benzamide]	2.3
Cc1cccc(C(=O)N(C)[C@H](CN2CCC2)C(C)C)c1 [Example 1.16, (S)-N-(1-(Azetidin-1-yl)-3-methylbutan-2-yl)-N,3-dimethyl-benzamide]	17
CN(C(=O)c1ccc(Cl)c(Cl)c1)[C@H](CN1CCCC1)C(C)(C)C [Example 2.1, (S)-3,4-Dichloro-N-(3,3-dimethyl-1-(pyrrolidin-1-yl)butan-2-yl)-N-methylbenzamide]	11
CN(C(=O)c1ccc(Br)cc1)[C@H](CN1CCCC1)C(C)(C)C [Example 2.2, (S)-4-Bromo-N-(3,3-dimethyl-1-(pyrrolidin-1-yl)butan-2-yl)-N-methylbenzamide]	14
CC[C@H](C)[C@@H](CN1CCCC1)N(C)C(=O)c1ccc(Cl)cc1 [Example 2.3, 4-Chloro-N-methyl-N-((2S,3S)-3-methyl-1-(pyrrolidin-1-yl)pentan-2-yl)benzamide]	1.6
CC[C@H](C)[C@@H](CN1CCCC1)N(C)C(=O)c1ccc(Br)cc1 [Example 2.4, 4-Bromo-N-methyl-N-((2S,3S)-3-methyl-1-(pyrrolidin-1-yl)pentan-2-yl)benzamide]	1.8
CC[C@H](C)[C@@H](CN1CCCC1)N(C)C(=O)c1ccc(Cl)cc1Cl [Example 2.6, 2,4-Dichloro-N-methyl-N-((2S,3S)-3-methyl-1-(pyrrolidin-1-yl)pentan-2-yl)benzamide]	2
CO[C@H](C)[C@@H](CN1CCCC1)N(C)C(=O)c1ccc(F)c(Cl)c1 [Example 3.3, 3-Chloro-4-fluoro-N-((2R,3R)-3-methoxy-1-(pyrrolidin-1-yl)butan-2-yl)-N-methylbenzamide]	7.2
CO[C@H](C)[C@@H](CN1CCCC1)N(C)C(=O)c1ccc(Br)cc1 [Example 3.4, 4-Bromo-N-((2R,3R)-3-methoxy-1-(pyrrolidin-1-yl)butan-2-yl)-N-methylbenzamide]	2.2
CO[C@H](C)[C@@H](CN1CCCC1)N(C)C(=O)c1ccc(Cl)cc1 [Example 3.5, 4-Chloro-N-((2R,3R)-3-methoxy-1-(pyrrolidin-1-yl)butan-2-yl)-N-methylbenzamide]	7.2
